Reference: patent publication US10214507B2, “Carbazole-containing amides, carbamates, and ureas as cryptochrome modulators” (Reset Therapeutics, Inc., priority 2014, dated 2019)

How the values were obtained:
[1] = biological target: FAD-binding domain of human CRY1 protein (hCRY1) (Homo sapiens (Human), UniProt Q16526); experiment: Thermal shift binding assay (differential scanning fluorimetry); conditions: purified hCRY1 FADBD, Sypro-Orange
Experimental: Binding of compounds to the isolated FAD-binding domain of human CRY1 protein (hCRY1) was determined using a differential scanning fluorimetry (‘thermal shift’) assay (Pantoliano et al. (2001) J Biomol Screening 6, 429; Niesen et al. (2007) Nature Protocols 2, 2212). The FAD-binding domain of hCRY1 (amino acid residues 1-494) with a C-terminal Myc-DDK tag (FADBD), was produced by transient transfection of HEK293T cells (Catalog # CRL-3216, American Type Culture Collection) and purified by anti-FLAG affinity chromatography (Catalog # A2220, Sigma-Aldrich). FADBD (0.5 μg per well) was incubated with dilutions of compounds in DMSO (5% DMSO final concentration in reaction) in 17.5 μl Tris-buffered saline (TBS) for 10 minutes on ice, then 2.5 μl of 8× Sypro-Orange Dye (Life Technologies) was added to each well. Triplicate wells were assayed for each compound concentration. The melting temperatures were measured in an ABI7500 quantitative PCR instrument using the melt curve mode with a thermal profile of 2 minutes at 25° C., followed by a ramp rate of 1° C./minute up to 99° C. The melting temperature for each well was determined from the first derivative of the melt curve. The change in melting temperature (ΔTm) was obtained by subtraction of the melting temperature of the FADBD in 5% DMSO alone.

C57/Bl6J DIO mice = experiment: Increasing dosages of Compound 72 for 7 days in diet-induced obesity mouse model; format: in vivo
Description: Male C57/Bl6J DIO mice were obtained from The Jackson Laboratory (Sacramento, Calif.). […] Animals were accustomed to these conditions for at least 2 weeks before experimentation and used at approximately 24 weeks of age.
Significance was accepted when p<0.05.
Male C57/Bl6J DIO mice were obtained from The Jackson Laboratory (Sacramento, Calif.). […] Animals were accustomed to these conditions for at least 2 weeks before experimentation and used at approximately 26 weeks of age.

Chain of FAD-binding domain of human CRY1 protein (hCRY1) (Q16526 1-494): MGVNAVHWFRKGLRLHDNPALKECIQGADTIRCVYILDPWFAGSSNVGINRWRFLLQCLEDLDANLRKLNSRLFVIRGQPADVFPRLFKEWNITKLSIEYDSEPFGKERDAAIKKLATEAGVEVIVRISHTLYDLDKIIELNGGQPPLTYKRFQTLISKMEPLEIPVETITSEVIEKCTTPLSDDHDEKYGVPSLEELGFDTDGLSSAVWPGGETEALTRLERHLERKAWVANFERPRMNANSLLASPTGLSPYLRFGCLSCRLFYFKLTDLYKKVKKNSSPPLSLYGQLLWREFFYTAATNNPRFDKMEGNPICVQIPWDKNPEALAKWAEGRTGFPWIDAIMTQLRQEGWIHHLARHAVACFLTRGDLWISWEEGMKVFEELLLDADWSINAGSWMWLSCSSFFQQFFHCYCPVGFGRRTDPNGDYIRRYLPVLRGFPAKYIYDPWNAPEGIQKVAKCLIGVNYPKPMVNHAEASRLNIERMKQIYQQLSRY

change in melting temperature (ΔTm) [1]: dose-dependent increase
SMILES: O=C1NCCN1CC(O)Cn1c2ccc(F)cc2c2cc(F)ccc21 (stereo not shown) [Compound 72, 1-(3-(3,6-difluoro-9H-carbazol-9-yl)-2-hydroxypropyl)imidazolidin-2-one]
fasting blood glucose (C57/Bl6J DIO mice; 10 mg/kg QD PO 7 days): 206.8 ± 8.36 mg/dL
glucose AUC from OGTT (C57/Bl6J DIO mice; 10 mg/kg QD PO 7 days): 22563+/−1224 units
fasting blood glucose (C57/Bl6J DIO mice; 30 mg/kg QD PO 7 days): 197.5 ± 12.06 mg/dL
glucose AUC from OGTT (C57/Bl6J DIO mice; 30 mg/kg QD PO 7 days): 19033+/−1934 units
fasting blood glucose (C57/Bl6J DIO mice; 100 mg/kg QD PO 7 days): 176.3 ± 7.83 mg/dL
glucose AUC from OGTT (C57/Bl6J DIO mice; 100 mg/kg QD PO 7 days): 19502+/−2404 units
